# Laboratory results published in patent US12616196B2, “Long protection mosquito repellent ointment” (MAIA AFRICA SAS, priority 2019, dated 2026).
# What was measured:
# Culicine = test: Field human landing catches, Goden village; format: in vivo, Culicine (Aedes); settings: total catch during the tests, collection 6 pm to 6 am
# Description: (§1) The protection time provided by ointment No. 9 of Example 1 has been measured according to the “Guidelines for efficacy testing of mosquito repellents for human skin” published by the World Health Organization in 2009 (noted hereafter “WHO Guidelines, 2009”). These guidelines describe how human landing catches must be performed on volunteers. The effectiveness of ointment No. 9 was evaluated and compared to a 20% ethanol solution of DEET (N, N-Diethyl-3-methylbenzamide), being the positive control, and an ethanol solution being the negative control.
# (§2) Briefly, the study was carried out in real conditions at the Goden village (12°25′N, 1°20′W), a rural village in the locality of Gampela, 25 km north-east of Ouagadougou, the capital city of Burkina Faso. Goden is in the Sudanian Savanna with approximately 800 inhabitants mainly belonging to the Mossi ethnic group, mostly devoted to agriculture and rearing few animals such as dogs, pigs and others. Goden is known for its high density of malaria vectors due to its proximity to the Massiri river. This study was carried out during the high malaria transmission period, when the mosquito density was the highest A preliminary assessment of the collection site was carried out by undertaking captures on human volunteers before the tests themselves. […]
# [1] = tested on: An. arabiensis (Kingani), An. gambiae s.s. (Kisumu), Ae. aegypti (Bagamoyo); test: Semi-field system (SFS), all species tested; format: in vivo, Anopheles and Aedes mosquitoes
# Description: (§3) The study was conducted under ambient condition in the semi-field system (SFS) located in Bagamoyo district at the Ifakara Health Institute at Bagamoyo branch in Tanzania. Bagamoyo is located on the coast region of the Indian Ocean between latitudes 6° and 8′ South and between longitudes 30° and 37′ East. The district experience annual rainfall ranging between 800 mm and 1000 mm, temperature ranging between 22° C. and 33° C., and mean relative humidity of 73%.
# Three laboratory-reared mosquito strains, aged 6 days old, sugar starved for 8 hours, nulliparous females, reactive to human odor on the day of the experiment, have been used for this experiment. […]
# (§4) Volunteers wore shorts, closed shoes and bug jacket to ensure mosquitoes had access to the lower limbs only. […] After application, an empty plastic cups were weighed to determine the quantity of repellent left in the cup. […]
# (§5) During the last 9 days, we used same volunteers, compartments and rotation schedule. […] Volunteers recorded a time the first mosquito of each species landed on the limb and the recaptured mosquito was placed in a paper cup labelled with volunteers unique identification code, time of collection, position and treatment code. […]
# Anopheles gambiae s.l. = test: Field human landing catches on treated lower legs, Goden village (WHO Guidelines 2009); format: in vivo; settings: for Median CPT (complete protection time): Kaplan-Meier
# Description: as §1
# Briefly, the study was carried out in real conditions at the Goden village (12°25′N, 1°20′W), a rural village in the locality of Gampela, 25 km north-east of Ouagadougou, the capital city of Burkina Faso. Goden is in the Sudanian Savanna with approximately 800 inhabitants mainly belonging to the Mossi ethnic group, mostly devoted to agriculture and rearing few animals such as dogs, pigs and others. Goden is known for its high density of malaria vectors due to its proximity to the Massiri river. This study was carried out during the high malaria transmission period, when the mosquito density was the highest A preliminary assessment of the collection site was carried out by undertaking captures on human volunteers before the tests themselves.
# A total of twenty volunteers have been recruited from the Goden village and have been trained for the nocturnal collection of mosquitoes on human bait using mouth aspirator and flash torch known as Human Landing Catches (HCL). The age of the volunteers ranged from 18 to 50 years old. After receiving explanation of the aims, benefits and risks of the study, they signed a written informed consent. The composition of the ointment was not disclosed to the volunteers. Volunteers were instructed not to use any fragranced soap or perfume, tobacco or alcohol 12 hours before the start and throughout the experiments. Before applying treatments, the lower leg of volunteers was washed with neutral soap, rinsed with 70% of ethanol solution and naturally dried. Once their legs treated volunteers were also asked to avoid rubbing, touching or wetting the repellent-treated area.
# Three treatments have been carried out in the study: • (i) one negative control (ethanol 100%), • (ii) two treatments of 20% DEET diluted in ethanol 100% of technical quality used as a positive control, since this repellent is considered as the reference, • (iii) two treatments of ointment No. 9.
# The products were applied to the bare leg of the volunteers and the areas of application were exposed to mosquito bites in the field. Volunteers applied to their exposed leg: Ointment No. 9 at a dosage of 2 mg/cm^2, and 20% DEET in ethanol for the positive control at a dosage of 1 ml per 600 cm^2.
# To establish the amount of repellent required for application in the experiments, the surface area of the leg of each volunteer were determined by first measuring the circumferences expressed in centimeter (cm) just below the knee, and above the ankle, multiplied by the length of the lower leg, measured from the knee to the ankle. The surface area (in cm^2) of skin was calculated according to formula (1) below: Area=½(Ck+Ca)Dka, (1) wherein Ck is the circumference below the knee in cm, Ca is the circumference above the ankle in centimeter, and Dka is the distance in centimeter between Ca and Ck. The amount needed for each volunteer was then determined depending on their leg length. In addition, the quantity of product left in bottles was weighed using a precision weighing balance (KERN & SOHN GmbH) to determine the amount applied by each volunteer. Overall, the average amount applied was 2.4±0.2 g per 1189±79.2 cm^2 and per volunteer's lower leg, leading to 2 mg/cm^2 of Ointment No. 9 and […] of a 20% DEET solution.
# Volunteers were divided into five groups of four volunteers. All the members of a group received the same treatment at the same time. […]
# Anopheles funestus = test: Field human landing catches, Goden village; format: in vivo; settings: total catch during the tests, collection 6 pm to 6 am
# Description: as §1, §2
# Other Anopheles = test: Field human landing catches, Goden village; format: in vivo; settings: total catch during the tests, collection 6 pm to 6 am
# Description: as §1, §2
# mosquitoes = test: Field human landing catches, hourly mosquito biting rate; format: in vivo; settings: with 95% CI
# Description: as §1, §2
# Ae. aegypti (Bagamoyo) = test: Semi-field system (SFS) recapture of released mosquitoes on treated lower limbs; format: in vivo, Aedes aegypti
# Description: as §3
# (§6) Three laboratory-reared mosquito strains, aged 6 days old, sugar starved for 8 hours, nulliparous females, reactive to human odor on the day of the experiment, have been used for this experiment. Mosquito strains used were: (i) the pyrethroid insecticide resistant (20% mortality) An. arabiensis (Kingani, (ii) fully pyrethroid susceptible An. gambiae s.s. (Kisumu) and (iii) Ae. aegypti (Bagamoyo). The vector control product-testing unit of IHI supplied all mosquitoes used in the experiments.
# The mosquitoes were reared in the insectary following MR4 guideline (MR4. Methods in Anopheles Research 2016; 2015 Edition). Adults were kept inside cages measuring 30 cm×30 cm×30 cm. Only hyperactive mosquitoes were selected at least 8 hours before the experiment. […] About 30 minutes before the experiment, mosquitoes were transferred to the SFS to acclimatize the environmental conditions. […]
# as §4, §5
# [2] = tested on: An. gambiae s.s. (Kisumu); test: as above; format: in vivo
# Description: as §3, §6
# (§7) The mosquitoes were reared in the insectary following MR4 guideline (MR4. Methods in Anopheles Research 2016; 2015 Edition). Adults were kept inside cages measuring 30 cm×30 cm×30 cm. Only hyperactive mosquitoes were selected at least 8 hours before the experiment. […] About 30 minutes before the experiment, mosquitoes were transferred to the SFS to acclimatize the environmental conditions. The SFS offered the following advantages; 1) volunteers were exposed to laboratory-reared mosquitoes only, 2) experiments were run using a known number of mosquitoes throughout the experiments; 3) mosquitoes used were of known age (6 days), physiological status and avidity. These features improve data quality and less results variability between days and volunteers.
# (§8) Three treatments have been tested: (i) Ethanol 100% as a negative control, (ii) 20% DEET diluted in ethanol 100% as a positive control, and (iii) ointment No. 9.
# (§9) Volunteers wore shorts, closed shoes and bug jacket to ensure mosquitoes had access to the lower limbs only. Volunteers applied 20% DEET and ointment No. 9 at an average rate of 2 mg/cm^2 of the repellent to the lower limbs using latex glove to minimize absorption onto volunteer's hand. After application, an empty plastic cups were weighed to determine the quantity of repellent left in the cup. The composition of the ointment was not disclosed to the volunteers.
# (§10) The study was divided into two experiments: one for Anopheles mosquitoes conducted in the late evening and the other for Ae. aegypti mosquitoes conducted early in the morning. The experiment for Anopheles started at 17:55 and that for Ae. aegypti at 06:00 hours.
# (§11) The experiments were conducted for a total of 18 days. During the first 9 days 100 mosquitoes (50 per species) were released in each compartment starting at 18:00 hours for Anopheles species and at 06:00 hours for Ae. aegypti. After the release, the number of mosquitoes recaptured by volunteers who applied 20% DEET and ointment No. 9 was insignificant up to 6 hours of recapture period. This warranted to extend the recapture period to 12 hours 9 last days.
# (§12) During the last 9 days, we used same volunteers, compartments and rotation schedule. Mosquitoes released were 100 per species and volunteers recaptured mosquitoes landing on their lower limbs using a mouth aspirator up to 12 hours of recapture period. Volunteers recorded a time the first mosquito of each species landed on the limb and the recaptured mosquito was placed in a paper cup labelled with volunteers unique identification code, time of collection, position and treatment code. The volunteer kept collecting subsequent mosquitoes up to 12 hours with cups changed after every hour.
# (§13) At the end of recapture time, mosquitoes were killed by putting in the refrigerator for about 30 minutes and then sorted to species level. If the mosquito recaptured in the control was below 50 percent, the experiment was considered invalid, data discarded and the experiment repeated. […]
# An. arabiensis (Kingani) = test: as above; format: in vivo
# Description: as §3, §6, §7, §8, §9, §10, §11, §12, §13
structure (smiles),measurement,setting,value
"CCN(CC)C(=O)c1cccc(C)c1 [20% DEET, N,N-diethyl-3-méthylbenzamide]",mosquitoes caught by treatment,Culicine,7
same,protective efficacy,"[1]; 6-hour recapture time, all species tested",100%
same,number of mosquitoes recaptured,[1]; up to 6 hours of recapture period,insignificant
same,percentage of repellency,Anopheles gambiae s.l.; after 3 h (10 hours after application),under 80%
same,Median CPT (complete protection time),Anopheles gambiae s.l.; indoor and outdoor together,480 min
same,Median CPT (complete protection time),Anopheles gambiae s.l.; indoor,480 min
same,Median CPT (complete protection time),Anopheles gambiae s.l.; outdoor,480 min
same,mosquitoes caught by treatment,"Anopheles gambiae s.l.; total catch during the tests, collection 6 pm to 6 am",686
same,increase of protection time compared to Ethanol,Anopheles gambiae s.l.; versus negative control Ethanol,four-fold
same,mosquitoes caught by treatment,Anopheles funestus,1
same,mosquitoes caught by treatment,Other Anopheles,1
same,average mosquito bites received per person per hour,mosquitoes,1.01 (95%: 0.76-1.33) per person per hour
same,Percentage protection (protective efficacy),Ae. aegypti (Bagamoyo); 12-hour recapture time,93.1%
same,Percentage recapture,Ae. aegypti (Bagamoyo); 12-hour recapture time,4.8%
same,"Average CRT (average complete protection time, CPT)",Ae. aegypti (Bagamoyo); up to 12 hours recapture,436.9 min
same,Percentage protection (protective efficacy),[2]; 12-hour recapture time,96.8%
same,Percentage recapture,[2]; 12-hour recapture time,2.5%
same,"Average CRT (average complete protection time, CPT)",[2]; up to 12 hours recapture,575 min
same,Percentage protection (protective efficacy),An. arabiensis (Kingani); 12-hour recapture time,97.2%
same,Percentage recapture,An. arabiensis (Kingani); 12-hour recapture time,2.7%
same,"Average CRT (average complete protection time, CPT)",An. arabiensis (Kingani); up to 12 hours recapture,580.9 min
